Patent US5795977A, “Water soluble adenosine kinase inhibitors” (Metabasis Therapeutics, Inc., priority 1996, dated 1998)
Where a name gives a salt, the structure may show the parent alone.

Key:
[1] = target: partially purified pig heart adenosine kinase or recombinant human adenosine kinase; test: AK inhibition; format: biochemical; details: 0.5 μM [U-14C] adenosine, pH 7.0, 37° C., 20 minutes
Procedure: Adenosine kinase activity was measured essentially as described by Yamada et al. Biochim. Biophys. Acta 660, 36-43 (1988) with a few minor modifications. Assay mixtures contained 50 mM TRIS-maleate buffer, pH 7.0, 0.1% BSA, 1 mM ATP 1 mM MgCl2, 0.5 μM [U-^14 C] adenosine (400-600 mCi/mmol) and varying duplicate concentrations of inhibitor. […] The amount of ^14 C-AMP was quantified by scintillation counting.

Rats (carrageenan paw) = test: Anti-inflammatory activity, carrageenan paw swelling; format: in vivo; details: rat, 10 mg/kg, swelling after 3 hours; for Carrageenan Paw (% inhibition) po: oral gavage
Procedure: Carrageenan (Type λ) was suspended in sterile PBS at 1% (w/v), autoclaved for 30 minutes, and stored at room temperature. Rats were pretreated with vehicle or AK inhibitor (10 mg/kg) by oral gavage or i.p. administration and the volume of the left hind paw was measured using a water displacement plethysmometer (Stoelting Co., Wood Dale, Ill.). One hour after oral treatment or 30 minutes after i.p. treatment, the rats were briefly anesthetized, and 0.1 ml of the carrageenan solution was injected subcutaneously into the planar surface of the left hind paw. The ensuing paw swelling was measured by plethysmometry after 3 hours. The paw volume in millileters was […]. Data are presented in Table 2 as the percent inhibition of paw swelling in AK inhibitor treated animals, compared to vehicle treated control animals.

Row | Compound | IC50 [1] [nM] | Carrageenan Paw (% inhibition) ip (Rats (carrageenan paw)) [%] | Carrageenan Paw (% inhibition) po (Rats (carrageenan paw)) [%]
1 | C[C@H]1O[C@@H](n2cc(-c3ccccc3)c3c(Nc4ccc(C(=O)O)cc4)ncnc32)[C@H](O)[C@@H]1O [Compound 209, 4-N-(4carboxyphenyl)amino-5-phenyl-7-(5-deoxy-1-β-D-ribofuranosyl)pyrrolo[2,3-d]pyrimidine] | 80 | 22.0 | 0.0
2 | C[C@H]1O[C@@H](n2cc(I)c3c(NCc4ccccn4)ncnc32)[C@H](O)[C@@H]1O [Compound 41, 4-N-(2-pyridylmethylamino)-5-iodo-7-(5-deoxy-1-β-D-ribofuranosyl)pyrrolo[2,3-d]pyrimidine] | 70 |  | 
3 | C[C@H]1O[C@@H](n2cc(-c3ccc(CN(C)C)cc3)c3c(Nc4ccc(F)cc4)ncnc32)[C@H](O)[C@@H]1O [Compound 198, 4-N-(4-fluorophenyl)amino-5-[4-(dimethylaminomethyl)phenyl]-7-(5-deoxy-β-D-ribofuranosyl)pyrrolo[2,3-d]pyrimidine] | 120 |  | 
4 | C[C@H]1O[C@@H](n2cc(-c3ccccc3)c3c(Nc4ccc(CCN5CCNCC5)cc4)ncnc32)[C@H](O)[C@@H]1O [Compound 4, 4-N-[4-(2-(1-piperazino)ethyl)phenyl]amino-5-phenyl-7-(5-deoxy-β-D-ribofuranosyl)pyrrolo[2,3-d]pyrimidine] |  |  | 2.5
5 | C[C@H]1O[C@@H](n2cc(-c3ccccc3)c3c(Nc4ccc(CC(=O)O)cc4)ncnc32)[C@H](O)[C@@H]1O [Compound 186, 4-N-(4-Carboxymethylphenyl)amino-5-phenyl-7-(5-deoxy-1-β-D-ribofuranosyl)pyrrolo[2,3-d]pyrimidine] | 80 |  | 
6 | C[C@H]1O[C@@H](n2cc(-c3cccnc3)c3c(NCc4ccccn4)ncnc32)[C@H](O)[C@@H]1O [Compound 48, 4-N-(2-pyridylmethyl)amino-5-(3-pyridino)-7-(5-deoxy-1-β-D-ribofuranosyl)pyrrolo[2,3-d]pyrimidine] | 300 |  | 
7 | C[C@H]1O[C@@H](n2cc(-c3ccccc3)c3c(Nc4ccc(C(=N)N)cc4)ncnc32)[C@H](O)[C@@H]1O [Compound 39, 4-N -(4-amidinophenyl)amino-5-phenyl-7-(5-deoxy-1-β-ribofuranosyl)pyrrolo[2,3-d]pyrimidine] | 1 |  | 
8 | NCCc1ccc(Nc2ncnc3c2c(-c2ccccc2)cn3[C@@H]2O[C@@H](CO)[C@@H](O)[C@H]2O)cc1 [Compound 16, 4-N-(4-(2-aminoethyl)phenyl)amino-5-phenyl-7-α-L-lyxofuranosylpyrrolo[2,3-d]pyrimidine] | 1 | 31.6 | 12.4
9 | C[C@H]1O[C@@H](n2cc(-c3ccccc3)c3c(Nc4ccc(CC(=O)N5CCNCC5)cc4)ncnc32)[C@H](O)[C@@H]1O [Compound 189] | 1 | 30.1 | 12.1
10 | C[C@H]1O[C@@H](n2cc(-c3ccccc3)c3c(Nc4ccc(CCS(=O)(=O)O)cc4)ncnc32)[C@H](O)[C@@H]1O [Compound 265, 4-N[4-(2-Sulfonyloxyethyl)phenylamino]-5-phenyl-7-(5-deoxy-1-β-D-ribofuranosyl)pyrrolo[2,3-d]pyrimidine] | 2 | 10.0 | 6.2
11 | C[C@H]1O[C@@H](n2cc(-c3ccccc3)c3c(Nc4ccc(NC(=N)N)cc4)ncnc32)[C@H](O)[C@@H]1O [Compound 269, 4-N-(4-Guanidinophenyl)amino-5-phenyl-7-(5-deoxy-1-β-D-ribofuranosyl)pyrrolo[2,3-d]pyrimidine] | 6 |  | 
12 | C[C@H]1O[C@@H](n2cc(-c3ccccc3)c3c(Nc4ccc(CCNC(=O)c5cccnc5)cc4)ncnc32)[C@H](O)[C@@H]1O [Compound 268, 4-N-[2-(Nicotinylaminoethyl)phenyl]amino-5-phenyl-7-(5-deoxy-1-β-D-ribofuranosyl)pyrrolo(2,3-d)pyrimidine] | 1 | 0.0 | 7.1
13 | C[C@H]1O[C@@H](n2cc(-c3ccccc3)c3c(Nc4ccc(C(=O)NN5CCCCC5)cc4)ncnc32)[C@H](O)[C@@H]1O [Compound 212] | 2 | 1.8 | 0.0
14 | C[C@H]1O[C@@H](n2cc(-c3ccccc3)c3c(Nc4ccc(C(N)=NO)cc4)ncnc32)[C@H](O)[C@@H]1O [Compound 37, 4-N-(4-amidoximephenyl)amino-5-phenyl-7-(5-deoxy-1-β-D-ribofuranosylpyrrolo[2,3-d]pyrimidine hydrochloride] | 5 | 17.9 | 23.3
15 | CC(=O)NS(=O)(=O)c1ccc(Nc2ncnc3c2c(-c2ccccc2)cn3[C@@H]2O[C@H](C)[C@@H](O)[C@H]2O)cc1 [Compound 40, 4-N-[4-(N-acetylaminosulfonyl)phenyl]amino-5-phenyl-7-(5-deoxy-1-β-D-ribofuranosyl)pyrrolo[2,3-d]pyrimidine] | 3000 |  | 
16 | CCN(CC)CCNC(=O)c1ccc(Nc2ncnc3c2c(-c2ccccc2)cn3[C@@H]2O[C@H](C)[C@@H](O)[C@H]2O)cc1 [Compound 211] | 0.5 |  | 
17 | C[C@H]1O[C@@H](n2cc(I)c3c(NCc4nc5ccccc5[nH]4)ncnc32)[C@H](O)[C@@H]1O [Compound 45, 4-N-(2-benzimidazolylmethyl)amino-5-iodo-7-(5-deoxy-1-β-D-ribofuranosyl) pyrrolo[(2,3-d)]pyrimidine] | 500 |  | 
18 | C[C@H]1O[C@@H](n2cc(-c3ccccc3)c3c(Nc4ccc(CCN(C)C)cc4)ncnc32)[C@H](O)[C@@H]1O [Compound 7, 4-N-[4-(2-N,N-dimethylaminoethyl)phenyl]amino-5-phenyl-7-(5-deoxy-β-D-ribofuranosyl)pyrrolo[2,3-d]pyrimidine] | 1 | 19.0 | 7.7
19 | CC(=O)Nc1ccc(Nc2ncnc3c2c(I)cn3[C@@H]2O[C@H](C)[C@H]3OC(C)(C)O[C@H]32)cc1 [Compound 29, 4-N-[4-(N-acetylamino)phenyl]amino-5-iodo-7-(1-β-D-5-deoxy-2,3-O-isopropylideneribose)pyrrolo[2,3-d]pyrimidine] | 0.5 | 26.1 | 14.9
20 | C[C@H]1O[C@@H](n2cc(-c3ccccc3)c3c(Nc4ccc(C(=O)N5CCNCC5)cc4)ncnc32)[C@H](O)[C@@H]1O [Compound 210, 4-N-[4-(4-piperazinocarbonylphenyl)]amino-5-phenyl-7-(5-deoxy-1-β-D-ribofuranosyl)pyrrolo[2,3-d]pyrimidine] | 2 | 23.8 | 0.0
21 | C[C@H]1O[C@@H](n2cc(I)c3c(NCc4cccnc4)ncnc32)[C@H](O)[C@@H]1O [Compound 44, 4-N-(3-pyridylmethylamino)-5-iodo-7-(5-deoxy-1-β-D-ribofuranosyl)pyrrolo[2,3-d]pyrimidine] | 120 |  | 
22 | OC[C@@H]1O[C@@H](n2cc(I)c3c(NCc4ccccn4)ncnc32)[C@H](O)[C@@H]1O [Compound 46, 4-N-(2-pyridylmethyl)amino-5-iodo-7-(a-L-lyxofuranosyl)pyrrolo(2,3-d)pyrimidine] | 220 |  | 
23 | C[C@H]1O[C@@H](n2cc(-c3ccc(/C=C/C(=O)O)cc3)c3c(Nc4ccc(F)cc4)ncnc32)[C@H](O)[C@@H]1O [Compound 202, 4-N-(4-fluorophenyl)amino-5-[4-(2-carboxy-E-ethenyl)phenyl]-7-(5-deoxy-1-β-D-ribofuranosyl)pyrrolo[2,3-d]pyrimidine] | 20 | 3.4 | 3.9
24 | CCN(CC)CCNC(=O)c1ccc(-c2cn([C@@H]3O[C@H](C)[C@@H](O)[C@H]3O)c3ncnc(Nc4ccc(F)cc4)c23)cc1 [Compound 200, 4-N-(4-fluorophenyl)amino-5-[4-(2-N,N-diethylaminoethyleneaminocarbonyl)phenyl]-7-(5-deoxy-1-β-D-ribofuranosyl)pyrrolo[2,3-d]pyrimidine hydrochloride] | 200 |  | 
25 | C[C@H]1O[C@@H](n2cc(-c3ccc(CN4CCNCC4)cc3)c3c(Nc4ccc(F)cc4)ncnc32)[C@H](O)[C@@H]1O [Compound 197, 4-N-(4-fluorophenyl)amino-5-[4-(N-piperazinomethyl)phenyl]-7-(5-deoxy-β-D-ribofuranosyl)pyrrolo[2,3-d]pyrimidine] | 9 |  | 
26 | C[C@H]1O[C@@H](n2cc(-c3ccc(CCC(=O)O)cc3)c3c(Nc4ccc(F)cc4)ncnc32)[C@H](O)[C@@H]1O [Compound 204, 4-N-(4-fluorophenyl)amino-5-[4-(2-carboxyethyl)phenyl]-7-(5-deoxy-1-β-D-ribofuranosyl)pyrrolo[2,3-d]pyrimidine] | 45 |  | 
27 | C[C@H]1O[C@@H](n2cc(-c3ccc(C(=O)N4CCNCC4)cc3)c3c(Nc4ccc(F)cc4)ncnc32)[C@H](O)[C@@H]1O [Compound 199, 4-N-(4-fluorophenyl)amino-5-[4-(N-piperazinocarbonyl)phenyl]-7-(5-deoxy-1-β-D-ribofuranosyl)pyrrolo(2,3-d]pyrimidine hydrochloride salt] | 550 |  | 
